Holding throughout (format): biochemical
Experiment [1] concerns the target T1, catalytic domain of human VEGFR3 (Homo sapiens, UniProt P35916, H890Q).
T1 construct: made in house; host or cells: Sf9 insect cells (baculovirus, pFastBac1)
The experiment can be described thus: VEGFR-3 Homogenous Time-Resolved Fluorescence Assay (VEGFR-3-HTRF). Conditions: for IC50: read-out: VEGFR3 PIC50 VEGFR-3-HTRF assay. An excerpt: VEGFR—3-Homogenous Time-Resolved Fluorescence Assay (VEGFR-3-HTRF)
This assay assesses Vascular Endothelial Growth Factor 3 (VEGFR3) tyrosine kinase inhibitory activity in substrate phosphorylation assays. The assay examines the ability of small molecule organic compounds to inhibit the tyrosine phosphorylation of a peptide substrate.
The substrate phosphorylation assays use the VEGFR3 catalytic domain, which is expressed in Sf. 9 insect cells as an amino-terminal GST-tagged fusion protein. The catalytic domain of human VEGFR3 (AA residues #819–1298 based upon GenBank Accession #XM003852) is cloned by PCR from human Placenta Marathon Ready cDNA (Clontech). The PCR product is subcloned into pFastBac1 vector containing an N-terminal GST tag. The resulting pFB/GST/VEGFR3icd vector is used to generate a recombinant baculovirus for protein expression. The VEGFR3 catalytic domain translated sequence is:
Autophosphorylation allows enzymes to be fully activated prior to addition to peptide substrates. The assays are performed using enzyme that has been activated by autophosphorylation via preincubation in buffer with ATP and magnesium. Activated enzyme is then diluted and added to titrated compound and the substrate mix.
200 nM VEGFR3 enzyme is activated for 45 minutes at room temperature by incubating the enzyme in buffer containing 100 mM HEPES (pH7.2), 75 μM ATP, 0.3 mM DTT, 0.1 mg/mL BSA, and 10 mM MgCl2. After activation, VEGFR3 is diluted 100-fold into 2× dilution buffer: 200 mM HEPES (pH 7.5), 0.2 mg/mL BSA, 0.6 mM DTT. 20 μL of the diluted enzyme mix is added to 20 μL of 2× substrate mix (150 μM ATP, 20 mM MgCl2, 0.72 μM biotinylated peptide) in the assay plates. Final assay conditions are: 100 mM HEPES (pH 7.2), 75 μM ATP, 10 mM MgCl2, 0.1 mg/mL BSA, 0.3 mM DTT, 0.36 μM biotinylated peptide, and 1 nM VEGFR3 enzyme. Assay plates are incubated for 1.5 hours at room temperature before the addition of 30 μL 100 mM EDTA to the wells to stop the enzymatic reaction. 40 μL/well of HTRF mix are then added to the assay plates for the detection of phosphorylated substrate. Final assay concentrations are: 100 mM HEPES (pH7.2), 0.1 mg/mL BSA, 15 nM streptavidin-labeled allophycocyanin (PerkinElmer), and 1 nM europium-labeled anti-phosphotyrosine antibody (PerkinElmer). Assay plates are left unsealed and are counted in a Wallac Multilabel Counter 1420 (PerkinElmer).
The data for dose responses are plotted as % Control calculated with the data reduction formula 100*(U1–C2)/(C1–C2) versus concentration of compound where U is the unknown value, C1 is the average control value obtained for DMSO , and C2 is the average control value obtained for 0.1M EDTA. Data are fitted to the curve described by: y=((Vmax*x)/(K+x)) where Vmax is the upper asymptote and K is the IC50.

For experiment [2], the target named is T2, GST-TIE2 (intracellular domains of human TIE2) (Homo sapiens, UniProt Q02763).
T2 construct: made in house
Description: TIE-2 Enzyme Assay (TIE2-E2), LANCE method. Conditions: for IC50: read-out: TIE2 PIC50 TIE2-E2 assay. An excerpt:
TIE-2 Enzyme Assay (TIE2-E2
The TIE-2 enzyme assay uses the LANCE method (Wallac) and GST-TIE2, baculovirus-expressed recombinant constructs of the intracellular domains of human TIE2 (amino acids 762–1104, GenBank Accession # L06139) tagged by GST). The method measures the ability of the purified enzymes to catalyse the transfer of the γ-phosphate from ATP onto tyrosine residues in a biotinylated synthetic peptide, D1–15 (biotin-C6-LEARLVAYEGWVAGKKKamide). This peptide phosphorylation is detected using the following procedure: for enzyme preactivation, GST-TIE2 is incubated for 2 hours at room temperature with 80 μM ATP, 10 mM MgCl2, 0.1 mg/ml BSA, 0.01% Tween 20 and 1 mM DTT in 100 mM HEPES buffer (pH7.4). 5 nM preactivated GST-TIE2 is incubated for 2 hours at room temperature in 96 well plates with 1 uM D1–15 peptide, 80 uM ATP, 10 mM MgCl2, 0.1 mg/ml BSA, 0.01% Tween 20 and titrated test compound (diluted from a 10 mM stock in DMSO, final DMSO concentration is 2.4%) in 100 mM HEPES (pH7.4). The reaction is stopped by the addition of EDTA (final concentration 45 mM). Streptavidin linked-APC (allophycocyanin, PerkinElmer) and europium-labeled anti-phosphotyrosine antibody (PerkinElmer) are then added at the final concentration of 8 nM and 1 nM, respectively. The APC signal is measured using an Wallac Multilabel 1420 counter. (Wallac Berthold Japan). The percent inhibition of activity is calculated relative to blank control wells. The concentration of test compound that inhibits 50% of activity (IC50) is interpolated using nonlinear regression (Levernberg-Marquardt) and the equation, y=Vmax (1−x/(K+x))+Y2, where “K” is equal to the IC50. The IC50 values are converted to pIC50 values, i.e., −log IC50 in Molar concentration.
(In general: TR-FRET usually uses a lanthanide donor and a delayed reading to cut background.)

The target of another experiment is T3, GST-VEGFR2 (Homo sapiens, UniProt P35968).
T3 construct: GST-VEGFR2, baculovirus expressed recombinant constructs of the intracellular domains; made in house
Description: VEGF-R2 Enzyme Assay (VEGF-E2), LANCE method. Conditions: for IC50: read-out: VEGFR2 PIC50 VEGFR-E2 assay.

T1 sequence (P35916 with tags, fused parts or gaps isoform P35916-1 H890Q): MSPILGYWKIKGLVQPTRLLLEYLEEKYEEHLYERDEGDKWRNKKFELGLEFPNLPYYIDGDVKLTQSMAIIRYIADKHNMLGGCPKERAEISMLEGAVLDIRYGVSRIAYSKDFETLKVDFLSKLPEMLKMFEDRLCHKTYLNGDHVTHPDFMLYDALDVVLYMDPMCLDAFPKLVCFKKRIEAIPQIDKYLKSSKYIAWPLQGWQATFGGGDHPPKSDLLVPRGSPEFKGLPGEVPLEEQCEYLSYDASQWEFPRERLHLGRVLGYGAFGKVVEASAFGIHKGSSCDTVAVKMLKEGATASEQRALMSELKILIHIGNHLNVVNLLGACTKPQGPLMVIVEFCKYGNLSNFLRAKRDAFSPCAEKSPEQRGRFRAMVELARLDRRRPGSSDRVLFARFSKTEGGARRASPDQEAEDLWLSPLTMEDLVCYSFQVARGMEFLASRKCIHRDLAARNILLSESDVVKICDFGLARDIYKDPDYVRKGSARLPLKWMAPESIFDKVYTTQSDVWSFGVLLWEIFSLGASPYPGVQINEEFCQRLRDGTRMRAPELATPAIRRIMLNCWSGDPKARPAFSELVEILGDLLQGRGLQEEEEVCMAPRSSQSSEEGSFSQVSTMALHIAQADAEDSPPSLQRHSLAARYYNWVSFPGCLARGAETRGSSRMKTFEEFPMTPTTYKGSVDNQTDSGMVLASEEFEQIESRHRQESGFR
T3 sequence (P35968 786-1356 limits assumed): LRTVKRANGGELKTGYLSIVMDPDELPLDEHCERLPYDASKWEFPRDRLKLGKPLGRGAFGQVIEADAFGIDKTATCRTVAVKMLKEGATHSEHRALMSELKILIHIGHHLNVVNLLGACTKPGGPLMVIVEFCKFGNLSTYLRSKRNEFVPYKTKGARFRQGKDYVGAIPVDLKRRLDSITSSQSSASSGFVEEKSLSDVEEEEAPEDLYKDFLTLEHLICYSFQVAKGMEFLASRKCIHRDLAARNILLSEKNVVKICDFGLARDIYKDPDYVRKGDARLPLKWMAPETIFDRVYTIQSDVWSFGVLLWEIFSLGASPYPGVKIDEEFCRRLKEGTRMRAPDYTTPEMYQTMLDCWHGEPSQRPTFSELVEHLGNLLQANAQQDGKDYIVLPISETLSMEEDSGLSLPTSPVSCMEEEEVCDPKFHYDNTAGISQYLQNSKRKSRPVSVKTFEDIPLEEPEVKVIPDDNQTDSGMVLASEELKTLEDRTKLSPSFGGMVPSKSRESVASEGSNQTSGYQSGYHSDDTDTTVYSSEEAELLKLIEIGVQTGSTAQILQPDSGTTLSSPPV
T2 sequence (Q02763 762-1104): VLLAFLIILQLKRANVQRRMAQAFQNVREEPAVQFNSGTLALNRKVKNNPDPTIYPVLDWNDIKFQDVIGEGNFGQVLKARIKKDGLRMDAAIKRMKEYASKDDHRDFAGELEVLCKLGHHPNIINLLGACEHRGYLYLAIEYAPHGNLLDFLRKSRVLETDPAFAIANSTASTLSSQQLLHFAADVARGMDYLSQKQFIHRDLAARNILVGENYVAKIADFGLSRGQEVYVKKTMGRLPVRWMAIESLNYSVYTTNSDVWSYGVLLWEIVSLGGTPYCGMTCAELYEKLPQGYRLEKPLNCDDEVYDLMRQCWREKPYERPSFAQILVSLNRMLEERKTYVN

With “1-(2-fluoro-5-trifluoromethyl-phenyl)-3-(4-{methyl-6-(2-oxopyrrolidin-2-yl)-1H-pyrazolo[3,4-d]pyrimidin-3-yl}-phenyl)-urea [Example 61]”, the “VEGFR3 PIC50 VEGFR-3-HTRF assay” value in experiment [1] was “+ (+ = PIC50 = 5.00 to less than 6.00)”. In experiment [2], the “TIE2 PIC50 TIE2-E2 assay” value is listed as “+++ (+++ = PIC50 = 7.00 to less than 7.40)”. Moreover, the “VEGFR2 PIC50 VEGFR-E2 assay” value at GST-VEGFR2 was “++ (++ = PIC50 = 6.00 to less than 7.00)”.
The matching figures for “1-(Chloro-trifluoromethyl-phenyl)-3-{4-[methyl-(2-morpholin-4-yl -ethylamino)-1H-pyrazolo[3,4-d]pyrimidin-3-yl]-phenyl}-urea [Example 37]”: “+ (+ = PIC50 = 5.00 to less than 6.00)”, “+++ (+++ = PIC50 = 7.00 to less than 7.40)” and “−− (−− = PIC50 less than 5.00)”.
In the same order, the values of “2,5-Dichloro-{4-{1-methyl-6-[3-(4-methyl-piperazin-1yl) -propylamino]-1H-pyrazolo[3,4-d]pyrimidin-3-yl}-phenyl}-thiophene-3-sulfonamide [Example 66]” are “−− (−− = PIC50 less than 5.00)”, “+++ (+++ = PIC50 = 7.00 to less than 7.40)” and “−− (−− = PIC50 less than 5.00)”.
`Cn1nc(-c2ccc(NC(=O)Nc3cc(C(F)(F)F)ccc3F)cc2)c2cnc(NCCN3CCOCC3)nc21` [Example 31, 1-(2-Fluoro-5-trifluoromethyl-phenyl)-3-{4-[1-methyl-6-(2-morpholin-4-yl-ethylamino)-1H-pyrazolo[3,4-d]pyrimidin-3-yl]-phenyl}urea]: the results for the IC50 (in experiment [1]; in experiment [2]; on GST-VEGFR2) were 1000 to 10000 nM, 39.8 to 100 nM and 1000 to 10000 nM, respectively.
As for `COCCNc1ncc2c(-c3ccc(NC(=O)Nc4cc(C(F)(F)F)ccc4F)cc3)nn(C)c2n1` [Example 32], in experiment [1], the “VEGFR3 PIC50 VEGFR-3-HTRF assay” value is given as “+ (+ = PIC50 = 5.00 to less than 6.00)”. Besides, the “TIE2 PIC50 TIE2-E2 assay” value in experiment [2] is given as “+++ (+++ = PIC50 = 7.00 to less than 7.40)”. Moreover, the “VEGFR2 PIC50 VEGFR-E2 assay” value at GST-VEGFR2 is “+ (+ = PIC50 = 5.00 to less than 6.00)”.
In the case of `Cn1nc(-c2ccc(NC(=O)Nc3cc(C(C)(C)C)on3)cc2)c2cnc(NCCN3CCOCC3)nc21` [Example 35], the IC50 in experiment [1] was 100 to 1000 nM; in experiment [2], 39.8 to 100 nM; at GST-VEGFR2, 1000 to 10000 nM.
Take `Cn1nc(-c2ccc(NC(=O)Nc3ccc4ccccc4c3)cc2)c2cnc(NCCN3CCOCC3)nc21` [Example 39, 1-{4-[1-Methyl-6-(2-morpholin-4-yl-ethylamino)-1H-pyrazolo[3,4-d]pyrimidin-3-y]-phenyl}-3-naphthalen-2-yl-urea]: the IC50 in experiment [1] was 1000 to 10000 nM; in experiment [2] it was 100 to 1000 nM; on GST-VEGFR2, 1000 to 10000 nM.
Consider `Cc1cc(-c2nn(C)c3nc(NCCN4CCOCC4)ncc23)ccc1NC(=O)Nc1ccc2ccccc2c1` [Example 46, 1-{2-Methyl-4-[1-methyl-6-(2-morpholin-4-yl-ethylamino)-1H -pyrazolo[3,4-d]pyrimidin-3-yl]-phenyl}-3-naphthalen-2-yl-urea], for which the IC50 in experiment [2] is 100 to 1000 nM; on GST-VEGFR2 it was above 10000 nM.
Take `Cn1nc(-c2ccc(NC(=O)Nc3cc(C(F)(F)F)ccc3F)c(F)c2)c2cnc(NCCN3CCOCC3)nc21` [Example 49]: the IC50 was 1000 to 10000 nM in experiment [1], at most 39.8 nM in experiment [2] and 1000 to 10000 nM on GST-VEGFR2.
Turning to `Cn1nc(-c2ccc(NC(=O)Nc3cc(C(F)(F)F)cc(C(F)(F)F)c3)c(F)c2)c2cnc(NCCN3CCOCC3)nc21` [Example 53, 1-(3,5-Bis-trifluoromethyl-phenyl)-3-{2-fluoro-[methyl-(2-morpholin-4-yl-ethylamino)-1H-pyrazolo[3,4-d]pyrimidin-3-yl]-phenyl}-urea], the “TIE2 PIC50 TIE2-E2 assay” value in experiment [2] is “+++ (+++ = PIC50 = 7.00 to less than 7.40)”. On GST-VEGFR2, the “VEGFR2 PIC50 VEGFR-E2 assay” value is “+ (+ = PIC50 = 5.00 to less than 6.00)”.
Turning to `Cn1nc(-c2ccc(NC(=O)Nc3ccc4ccccc4c3)c(F)c2)c2cnc(NCCN3CCOCC3)nc21` [Example 55], the IC50 in experiment [2] was 100 to 1000 nM; on GST-VEGFR2, above 10000 nM.
For `CN(CCN1CCOCC1)c1ncnc2[nH]nc(-c3ccc(NC(=O)Nc4cc(C(F)(F)F)ccc4F)c(C(F)(F)F)c3)c12` [Example 56, 1-(2-Fluoro-5-trifluoromethyl-phenyl)-3-{[methyl-(2-morpholin-4-yl-ethylamino)-1H-pyrazolo[3,4-d]pyrimidin-3-yl]-(2-trifluoromethyl-phenyl)}-urea], in experiment [2], the “TIE2 PIC50 TIE2-E2 assay” value is “+ (+ = PIC50 = 5.00 to less than 6.00)”. In addition, at GST-VEGFR2, the “VEGFR2 PIC50 VEGFR-E2 assay” value is “+ (+ = PIC50 = 5.00 to less than 6.00)”.
Turning to `Cn1nc(-c2ccc(NS(=O)(=O)c3cccc(Cl)c3Cl)cc2)c2cnc(NCCCN3CCCC3=O)nc21` [Example 67], the IC50 (in experiment [1]; in experiment [2]; on GST-VEGFR2) was 1000 to 10000 nM in each case.
As to `CC(=O)Nc1ncc2c(-c3ccc(NC(=O)Nc4cc(C(F)(F)F)ccc4F)cc3)nn(C)c2n1` [Example 70], the IC50 is 100 to 1000 nM in experiment [2] and 1000 to 10000 nM on GST-VEGFR2.
As to `CC(=O)Nc1ncc2c(-c3ccc(NS(=O)(=O)c4cccc(Cl)c4Cl)cc3)nn(C)c2n1` [Example 71], the IC50 was in the range of 100 to 1000 nM in experiment [1], 1000 to 10000 nM in experiment [2] and 1000 to 10000 nM at GST-VEGFR2.
`CC(C)n1nc(-c2ccc(NS(=O)(=O)c3cccc(Cl)c3Cl)cc2)c2cnc(NCCN3CCOCC3)nc21` [Example 77, 2,3-Dichloro-N-{4-(1-isopropyl-6-(2-morpholin-4-yl-ether)-1H -pyrazolo[3,4-d]pyrimidin-3-yl}-phenyl}-benzenesulfonamide]: the IC50 in experiment [1] lay within 1000 to 10000 nM; in experiment [2], 100 to 1000 nM; on GST-VEGFR2, 1000 to 10000 nM.
For `Cn1nc(-c2ccc(NC(=O)Nc3cc(C(F)(F)F)ccc3F)cc2)c2cnc(NCCCCCO)nc21` [Example 82], the IC50 in experiment [1] is above 10000 nM; in experiment [2] it was 39.8 to 100 nM; at GST-VEGFR2, above 10000 nM.
As to `Cn1nc(-c2ccc(NC(=O)Nc3cc(C(F)(F)F)ccc3F)cc2)c2cnc(NC(CO)CO)nc21` [Example 83], the IC50 in experiment [2] was 100 to 1000 nM; at GST-VEGFR2, above 10000 nM.
As for `Cn1nc(-c2ccc(NC(=O)Nc3cc(C(F)(F)F)ccc3F)cc2)c2cnc(NCCCNS(C)(=O)=O)nc21` [Example 96, N-[3-(3-{4-[3-(2-Fluoro-5-trifluoromethyl-phenyl)-ureido]-phenyl}-1-methyl-1H-pyrazolo[3,4-d]pyrimidin-6-ylamino)-propyl]-methanesulfonamide], the IC50 was 1000 to 10000 nM in experiment [1], 39.8 to 100 nM in experiment [2] and 1000 to 10000 nM on GST-VEGFR2.

Values taken from patent US7217710B2, “Substituted pyrazolopyrimidines” (SmithKline Beecham Corporation, priority 2001, dated 2007).
